Consider 2 compounds from patent publication US11167006B2 (Shanghai Tianci Life Science Development Co., Ltd., priority 2016, dated 2021).

The test system of data set [1] is acute pain caused by photothermal therapy in male mice of Kunming strain. The note with it: mouse tail flick, lateral ventricle; from ZL201210098832.2; cited from earlier work.
Data set [2] has as its system formalin-induced pain mice. The conditions noted are these: lateral ventricle; Br J Pharmacol 2016; cited from earlier work.
In data set [3] the test system is male mice of Kunming strain. The data set can be described thus: Analgesic tolerance test (photothermal tail flick). It is filed as in vivo, mouse. The procedure:
The mice were injected with the drug in the lateral ventricle of the mice for six consecutive days or in the subcutaneous of the mice for eight consecutive days, and their analgesic tolerance were detected by photothermal tail flick method, and the pharmacological activity of the compounds of the present invention in analgesic tolerance was further explored.
In male mice of Kunming strain, the drug was injected continuously in the lateral ventricle for six days, once a day, and the effect of continuous injection of drugs on the pain sensation was detected by a photothermal tail flick instrument. The ambient temperature is controlled at 22±1° C., and the experimental animals are free to eat and drink. The test drug was injected into the lateral ventricle of the mouse for 6 consecutive days, 4 μl per injection. The basic tail flick incubation period (3-5 seconds) was measured before the first day of drug injection, and those mice that were too sensitive or dull were discarded. The tail flick incubation period of 5, 10, 15, 20, 30 min after administration on the first and sixth days was recorded in the experiment. To prevent scald on the tail of the mouse, the maximum tail flick incubation period was set as 10 seconds,
In addition, we further studied the tolerance of subcutaneous administration of compound 9 and morphine in the photothermal tail flick test. The ambient temperature is controlled at 22±1° C., and the experimental animals are free to eat and drink. First, the basic tail flick incubation period (3-5 seconds) of the mice was measured before administration, and then compound 9 or morphine was administered subcutaneously for eight consecutive days. The tail flick incubation period of 10, 15 and 20 minutes after daily administration were recorded. To prevent scald on the tail of the mouse, the maximum tail flick incubation period was set as 10 seconds.
The experimental data is expressed by MPE (maximum possible effect), MPE (%)=100×[(pain threshold after administration−basal pain threshold)/(10 seconds−basal pain threshold)]. The analgesic tolerance of the drug was compared using the MPE value at the time of maximum analgesic effect of the drug. MPE data was expressed as mean±standard error (Means±S.E.M.). The difference in the analgesic effect of continuous administration in the lateral ventricle of the mice for six days was statistically analyzed by the paired T test, and the difference in the analgesic effect of subcutaneous continuous administration for eight days was analyzed by One-way analysis of variance (one-way ANOVA's Tukey HSD test) for statistics, and ***P<0.001 indicates a significant difference from the analgesic effect of the drug injected on the first day.

Data set [4] deals with CFA-induced inflammatory pain in mouse. Briefly: Analgesic tolerance and cross-tolerance in CFA-induced inflammatory pain. It is filed as in vivo. The conditions noted are these: mechanical pain, lateral ventricle 6 days or subcutaneous 7 days. The method, then: CFA-induced inflammatory pain in mouse was detected by an electronic Von Frey tenderness instrument, and the basal pain threshold of normal mice was Firstly determined. Then […] of CFA solution was injected subcutaneously into the mouse paw. After 4 days, the mechanical pain sensitivity value of the injected paw of the mouse was measured. And then compound 9 or morphine was injected for 6 consecutive days (lateral ventricle) or 7 consecutive days (subcutaneously), and the mice in morphine group were given compound 9 on day 7 (lateral ventricle) or day 8 (subcutaneous). The mechanical pain thresholds at different time points after administration were recorded.
The experimental data were expressed as mean± standard error (Means±S.E.M.). Data for differences between groups treated with the same drug were analyzed by one-way ANOVA (Tukey HSD test of one-way ANOVA) for statistics and analysis, *P<0.05. **P<0.005, ***P<0.001 indicates a significant difference between the mechanical pain threshold of the drug-treated group and the pain threshold after the first day of administration.

Data set [5] concerns CCI-induced neuralgia in mouse. The data set can be described thus: Analgesic tolerance and cross-tolerance in CCI-induced neuralgia. It is filed as in vivo. The note with it: subcutaneous, seven consecutive days. The procedure: CCI-induced neuralgia in mouse was detected using a PL-200 thermal tingling instrument and an electronic Von Frey tenderness instrument. The thermal pain threshold of one group of normal mice and the mechanical pain threshold of another group of normal mice were first determined. The mice were then anesthetized with sodium pentobarbital 80 mg/kg mouse body weight) and the mice were fixed in the prone position. The right sciatic nerve was exposed and 3 mild ligation rings were made around the sciatic nerve using a 4-0 chromic catgut, 1 mm intervals. The ligation intensity is preferably a slight tremor in the right hind leg. On the 10th day after surgery, the thermal pain sensitivity value and mechanical pain sensitivity value of the right hind paw of the two groups of mice were determined. Compound 9 or morphine was then administered subcutaneously for seven consecutive days, and compound 9 was given to mice in the morphine group on day 8. The thermal tingling and mechanical pain thresholds at different time points after administration were recorded.
The experimental data were expressed as mean±standard error (Means±S.E.M.). Data for differences between groups treated with the same drug were analyzed by one-way ANOVA (Tukey HSD test of one-way ANOVA) for statistics and analysis, *P<0.05. **P<0.01, ***P<0.001 indicates a significant difference between the pain threshold of the drug-treated group and the pain threshold after the First day of administration.

For data set [6], the system named is gastrointestinal movement of male mice of Kunming strain. Briefly: Gastrointestinal movement in vivo (activated carbon suspension). The conditions noted are these: 10 mg/kg (compound 9 subcutaneous; morphine positive control). More on the design: species or system mouse. The method, then:
Male mice of Kunming strain, weighing 26±2 g. The commonly used toner detection method was used in the detection of astrointestinal movement in vivo. The specific experimental procedure was: before the gastrointestinal movement experiment, the mice were fasted for 16 hours (free drinking during fasting), then the drug was injected through spinal cord or subcutaneously, and after 15 minutes, the activated carbon suspension prepared in advance (a physiological saline suspension containing 5% of activated carbon and 10% gum arabic) was orally perfused into the stomach in a volume of 0.1 ml per 10 g of body weight. After 30 minutes from the perfusion of activated carbon suspension, the animals were sacrificed by cervical dislocation, and then the small intestine of the animal from the pylorus to the cecum was carefully taken out. The total lengths of the small intestine from the pylorus to the cecum and the furthest distance from which the activated carbon suspension moves were measured.
Gastrointestinal movement test results were evaluated by a percentage of gastrointestinal movement, and the percentage of gastrointestinal movement per mouse was calculated by dividing the moving distance of the activated carbon suspension by the total length of the small intestine. The relevant data were expressed as mean of the percentage of gastrointestinal movement±standard error (Means±S.E.M.), the data for differences between groups treated with different drug concentrations were analyzed by one-way ANOVA (Dunnett test in one-way ANOVA) for statistics and analysis, ***P<0.001 represented that there was a significant difference between the percentage of gastrointestinal movement of the drug-treated group and that of the saline group.

The subject of data set [7] is movement activity of mice. The data set can be described thus: Movement activity, open field experiment. The note with it: subcutaneous 10 mg/kg. It is filed as in vivo, mouse. The method, then: The movement activity of the mice was tested by open field experiments. The experimental device is consisted of a 50×50×50 cm topless black plexiglass box and a movement monitoring system. The experiment was carried out in a soundproof environment with an indoor temperature being controlled at 22±1° C. After the experiment was started, the mice were first recorded for free movement within 30 minutes, and then compound 9 or morphine was administered subcutaneously, the movement of the mice was detected for another 150 minutes. Before the experiment for each mouse was started, the whole box was wiped with alcohol as a whole to exclude the residual odor of the previous mouse from affecting the accuracy of the data.
The experimental data were expressed as mean±standard error (Means±S.E.M.), and the data for differences between groups treated with different drugs were analyzed by one-way ANOVA (Bonferroni test in one-way ANOVA) for statistics and analysis, ***P<0.001 represents that there was a significant difference between the movement activity of the drug-treated group and that of the saline group.

Data set [8] concerns mice. Briefly: Conditional position preference test (CPP). It is filed as in vivo, mouse. The note with it: subcutaneous 10 mg/kg. The procedure: The conditional position preference experimental device is a closed device (45×20×20 cm) assembled from transparent plexiglass plates. Two 20×20×20 cm conditional preference boxes are located at both ends of the device, with a small compartment 5×20×20 cm having a passage (5×5×5 cm) connected in the middle. On the first day of the experiment, the passage was kept open, the mice was placed into the device for 15 min, and the mice that had been explored for more than 9 min in any of the preference boxes were excluded. […] On day 5, the passage was kept opened again to ensure that the mice were free to enter into the two preference boxes, and the time that the mice stayed in the drug matching preference box within 15 minutes of the total time was recorded.
The experimental relevant data were expressed as mean±standard error (Means±S.E.M.), and the conditional position preference score represents the time spent on the drug matching preference box on day 5 of each mouse minus the time on the first day in this preference box. Differences between groups treated with different drugs in CPP trials were analyzed by one-way ANOVA (Tukey HSD test in one-way ANOVA) for data statistics and analysis.

Data set [9] has as its system mice. Briefly: Naloxone withdrawal test. It is filed as in vivo, mouse. The note with it: s.c. at 8 hours intervals 20, 40, 60, 80, 100, 100, 100 mg/kg; naloxone 1 mg/kg; 30 minutes.
Where [10] appears, read: lateral ventricle injection, once a day, morphine 4 nmol.

Square brackets hold non-standard residues; d marks the D form. Ends that are not written are not given here.

As for “Tyr-D-Ala-Gly-Phe-Gln-Pro-Gln-Arg-Phe-NH2 (Y[dA]GFQPQRF-NH2) [BN-9]”, the “analgesic ED50 value of BN-9” value in data set [1] was 0.39 nmol. Further, in [2], the “analgesic ED50 value of BN-9, formalin first phase pain” value is on record as 0.12 nmol and the “analgesic ED50 value of BN-9, formalin second phase pain” value is reported as 1.14 nmol.

As for `CN1CC[C@]23c4c5ccc(O)c4O[C@H]2[C@@H](O)C=C[C@H]3[C@H]1C5` [morphine, reference compound], in [3] (eight consecutive days subcutaneous, 10 mg/kg), the “analgesic tolerance” value is “significantly reduced from day 4”. Further, in [3] (setting [10]), the “analgesic effect (MPE) after six days of continuous injection” value was 36.15% and the “analgesic effect (MPE) on the first day” value came to 86.97%. Further, the “analgesic tolerance” value in [3] (six consecutive days lateral ventricle injection, compounds at 3 times ED50, morphine 4 nmol) is “can significantly cause analgesia tolerance”. In addition, the “analgesic tolerance on continuous injection” value in [4] is “significantly reduced from the fourth day”. Also, in [5], the “analgesic tolerance on continuous injection, mechanical pain sensitivity” value is given as “from the fourth day” and the “analgesic tolerance on continuous injection, thermal sensitivity pain” value was “from the third day”. For the same compound, in data set [6], the “percentage of gastrointestinal movement” value came out at 16.92%. Moreover, the “total distance of movement” value in data set [7] is reported as 439.73 m. Besides, the “conditional positional preference” value in the data set on mice [8] is given as “produced significant conditional positional preference”. Moreover, the “average number of jumps after naloxone withdrawal” value in the data set with mice [9] was determined as 47.
